Reference: patent US20250122160A1, “PROTEIN TYROSINE PHOSPHATASE INHIBITORS AND METHODS OF USE THEREOF” (Calico Life Sciences LLC, priority 0001, published 2025)
pIC50: −log10 of the molar value.

Columns and labels:
[1] = molecular target: T1, His tagged PTPN2 (TC45) protein (Homo sapiens, UniProt P17706); test: Mobility shift assay (MSA) to determine potency of PTPN2 inhibitors; assay type: biochemical; conditions: 0.5 nM enzyme, 2 μM substrate
T1 construct: made in house
T1 sequence (P17706 with tags, fused parts or gaps isoform P17706-2): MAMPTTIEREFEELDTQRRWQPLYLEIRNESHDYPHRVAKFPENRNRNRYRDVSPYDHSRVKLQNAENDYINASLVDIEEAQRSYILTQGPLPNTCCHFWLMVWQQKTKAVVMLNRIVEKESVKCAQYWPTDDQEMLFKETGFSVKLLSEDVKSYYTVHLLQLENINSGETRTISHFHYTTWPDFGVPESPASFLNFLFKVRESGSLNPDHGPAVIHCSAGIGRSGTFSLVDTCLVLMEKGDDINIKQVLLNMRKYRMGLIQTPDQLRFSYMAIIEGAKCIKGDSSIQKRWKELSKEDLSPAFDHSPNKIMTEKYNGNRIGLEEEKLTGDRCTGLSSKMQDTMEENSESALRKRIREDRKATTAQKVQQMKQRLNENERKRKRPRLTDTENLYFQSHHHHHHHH
Procedure, shortened: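 His-tagged human PTPN2 (TC45), 0.5 nM, preincubated 10 min at room temperature with compound (12-point, 1:3 dilutions) in HEPES pH 7.5 buffer with EGTA, EDTA, Tween 20 and DTT. Then 2 μM OG488-labelled phospho-insulin-receptor peptide was added for 10 min and quenched. % conversion was read by mobility shift, and IC50 came from % inhibition.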

[2] = molecular target: T2, His tagged full-length PTPN1 protein (Homo sapiens, UniProt P18031); test: Mobility shift assay (MSA) to determine potency of PTPN1 inhibitors; assay type: biochemical; conditions: 0.5 nM enzyme, 2 μM substrate
T2 construct: made in house
T2 sequence (P18031 with tags, fused parts or gaps): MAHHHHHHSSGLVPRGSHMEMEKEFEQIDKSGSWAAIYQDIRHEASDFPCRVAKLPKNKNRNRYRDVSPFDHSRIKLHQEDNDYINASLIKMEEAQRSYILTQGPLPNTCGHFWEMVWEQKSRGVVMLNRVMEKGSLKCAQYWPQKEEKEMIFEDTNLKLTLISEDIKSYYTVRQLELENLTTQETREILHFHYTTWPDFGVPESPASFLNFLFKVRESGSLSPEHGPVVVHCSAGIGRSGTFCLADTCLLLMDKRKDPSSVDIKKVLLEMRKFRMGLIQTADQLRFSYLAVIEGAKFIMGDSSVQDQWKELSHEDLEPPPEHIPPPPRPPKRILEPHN
Procedure, shortened: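 His-tagged full-length human PTPN1 (0.5 nM) preincubated with compound 10 min at room temperature in pH 7.5 HEPES buffer with EGTA, EDTA, Tween 20 and DTT. Dephosphorylation of 2 μM fluorescent phospho-insulin-receptor peptide over 10 min measured by mobility shift. IC50 from % inhibition across a 12-point, 1:3 dilution series.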

Structure (SMILES)	pIC50 [2]	pIC50 [1]
CC(C)CCN[C@@H]1COc2cc(O)c(N3CC(=O)NS3(=O)=O)c(F)c2C1 [Compound 372, 5-{(3S)-5-fluoro-7-hydroxy-3-[(3-methylbutyl)amino]-3,4-dihydro-2H-1-benzopyran-6-yl}-1λ^6,2,5-thiadiazolidine-1,1,3-trione]	7.00 to 8.00	7.00 to 8.00
O=C1CN(c2c(O)cc3c(c2F)C[C@H](NCCCC(F)F)CO3)S(=O)(=O)N1 [Compound 373, 5-{(3S)-3-[(4,4-difluorobutyl)amino]-5-fluoro-7-hydroxy-3,4-dihydro-2H-1-benzopyran-6-yl}-1λ^6,2,5-thiadiazolidine-1,1,3-trione]	7.00 to 8.00	8.00 to 9.00
O=C1CN(c2c(O)cc3c(c2F)C[C@H](NCCCOCC(F)F)CO3)S(=O)(=O)N1 [Compound 379, 5-[(3S)-3-{[3-(2,2-difluoroethoxy)propyl]amino}-5-fluoro-7-hydroxy-3,4-dihydro-2H-1-benzopyran-6-yl]-1λ^6,2,5-thiadiazolidine-1,1,3-trione]	7.00 to 8.00	7.00 to 8.00
O=C1CN(c2c(O)cc3c(c2F)C[C@H](NCC2CCC(C(F)(F)F)CC2)CO3)S(=O)(=O)N1 (stereo partly drawn) [Compound 380, 5-[(3S)-5-fluoro-7-hydroxy-3-({[4-(trifluoromethyl)cyclohexyl]methyl}amino)-3,4-dihydro-2H-1-benzopyran-6-yl]-1λ^6,2,5-thiadiazolidine-1,1,3-trione]	7.00 to 8.00	7.00 to 8.00
CC(C)(C)OC(=O)N1CCC(CN[C@@H]2COc3cc(O)c(N4CC(=O)NS4(=O)=O)c(F)c3C2)CC1 [Compound 384, tert-butyl 4-({[(3S)-5-fluoro-7-hydroxy-6-(1,1,4-trioxo-1λ^6,2,5-thiadiazolidin-2-yl)-3,4-dihydro-2H-1-benzopyran-3-yl]amino}methyl) piperidine-1-carboxylate]	7.00 to 8.00	7.00 to 8.00
O=C1CN(c2c(O)cc3c(c2F)C[C@H](NCC2CC(c4ccccc4)C2)CO3)S(=O)(=O)N1 (stereo partly drawn) [Compound 385, 5-[(3S)-5-fluoro-7-hydroxy-3-{[(3-phenylcyclobutyl)methyl]amino}-3,4-dihydro-2H-1-benzopyran-6-yl]-1λ^6,2,5-thiadiazolidine-1,1,3-trione]	7.00 to 8.00	8.00 to 9.00
O=C1CN(c2c(O)cc3c(c2F)C[C@H](NCCCc2ccccc2)CO3)S(=O)(=O)N1 [Compound 386, 5-{(3S)-5-fluoro-7-hydroxy-3-[(3-phenylpropyl)amino]-3,4-dihydro-2H-1-benzopyran-6-yl}-1λ^6,2,5-thiadiazolidine-1,1,3-trione]	7.00 to 8.00	7.00 to 8.00
CC(C)CCCN1CCc2cc(O)c(N3CC(=O)NS3(=O)=O)c(F)c2C1=O [Compound 387, 5-[8-fluoro-6-hydroxy-2-(4-methylpentyl)-1-oxo-1,2,3,4-tetrahydroisoquinolin-7-yl]-1λ^6,2,5-thiadiazolidine-1,1,3-trione]	< 7.00	< 7.00
O=C1CN(c2c(O)cc3c(c2F)C(=O)NCC3)S(=O)(=O)N1 [Compound 388, 5-(8-fluoro-6-hydroxy-1-oxo-1,2,3,4-tetrahydroisoquinolin-7-yl)-1λ^6,2,5-thiadiazolidine-1,1,3-trione]	< 7.00	< 7.00
CC(C)CCN[C@H]1Cc2c(cc(O)c(N3CC(=O)NS3(=O)=O)c2F)C[C@H]1O [Compound 393, 5-{(6R,7S)-1-fluoro-3,6-dihydroxy-7-[(3-methylbutyl)amino]-5,6,7,8-tetrahydronaphthalen-2-yl}-1λ^6,2,5-thiadiazolidine-1,1,3-trione]	8.00 to 9.00	8.00 to 9.00
C[C@@H]1C[C@@H](NC(=O)OC(C)(C)C)Cc2c1cc(O)c(N1CC(=O)NS1(=O)=O)c2F [Compound 395, tert-butyl [(2R,4R)-8-fluoro-6-hydroxy-4-methyl-7-(1,1,4-trioxo-1λ^6,2,5-thiadiazolidin-2-yl)-1,2,3,4-tetrahydronaphthalen-2-yl]carbamate]	< 7.00	< 7.00
C[C@@H]1C[C@@H](N)Cc2c1cc(O)c(N1CC(=O)NS1(=O)=O)c2F [Compound 397, 5-[(5R,7R)-7-amino-1-fluoro-3-hydroxy-5-methyl-5,6,7,8-tetrahydronaphthalen-2-yl]-1λ^6,2,5-thiadiazolidine-1,1,3-trione]	< 7.00	< 7.00
C[C@H]1C[C@@H](N)Cc2c1cc(O)c(N1CC(=O)NS1(=O)=O)c2F [Compound 398, 5-[(5S,7R)-7-amino-1-fluoro-3-hydroxy-5-methyl-5,6,7,8-tetrahydronaphthalen-2-yl]-1λ^6,2,5-thiadiazolidine-1,1,3-trione]	7.00 to 8.00	7.00 to 8.00

The next lines start with results.

pIC50 [2]	Structure (SMILES)	pIC50 [1]
7.00 to 8.00	CC(C)(CCN)CCN[C@@H]1CCc2cc(O)c(N3CC(=O)NS3(=O)=O)c(F)c2C1 [Compound 374, 5-{(7R)-7-[(5-amino-3,3-dimethylpentyl)amino]-1-fluoro-3-hydroxy-5,6,7,8-tetrahydronaphthalen-2-yl}-1λ^6,2,5-thiadiazolidine-1,1,3-trione]	8.00 to 9.00
7.00 to 8.00	O=C1CN(c2c(O)cc3c(c2F)C[C@H](NCCC2CCOCC2)CO3)S(=O)(=O)N1 [Compound 375, 5-[(3S)-5-fluoro-7-hydroxy-3-{[2-(oxan-4-yl)ethyl]amino}-3,4-dihydro-2H-1-benzopyran-6-yl]-1λ^6,2,5-thiadiazolidine-1,1,3-trione]	7.00 to 8.00
8.00 to 9.00	NCC1(CCN[C@@H]2CCc3cc(O)c(N4CC(=O)NS4(=O)=O)c(F)c3C2)CCC1 [Compound 376, 5-[(7R)-7-({2-[1-(aminomethyl)cyclobutyl]ethyl}amino)-1-fluoro-3-hydroxy-5,6,7,8-tetrahydronaphthalen-2-yl]-1λ^6,2,5-thiadiazolidine-1,1,3-trione]	> 9.00
8.00 to 9.00	NCCC1(CCN[C@@H]2CCc3cc(O)c(N4CC(=O)NS4(=O)=O)c(F)c3C2)CCC1 [Compound 377, 5-[(7R)-7-({2-[1-(2-aminoethyl)cyclobutyl]ethyl}amino)-1-fluoro-3-hydroxy-5,6,7,8-tetrahydronaphthalen-2-yl]-1λ^6,2,5-thiadiazolidine-1,1,3-trione]	> 9.00
< 7.00	O=C1CN(c2c(O)cc3c(c2F)C[C@H](NCC2(CF)CC2)CO3)S(=O)(=O)N1 [Compound 381, 5-[(3S)-5-fluoro-3-({[1-(fluoromethyl)cyclopropyl]methyl}amino)-7-hydroxy-3,4-dihydro-2H-1-benzopyran-6-yl]-1λ^6,2,5-thiadiazolidine-1,1,3-trione]	7.00 to 8.00
7.00 to 8.00	O=C1CN(c2c(O)cc3c(c2F)C[C@H](NCCC2CCOC2)CO3)S(=O)(=O)N1 (stereo partly drawn) [Compound 382, 5-[(3S)-5-fluoro-7-hydroxy-3-{[2-(oxolan-3-yl)ethyl]amino}-3,4-dihydro-2H-1-benzopyran-6-yl]-1λ^6,2,5-thiadiazolidine-1,1,3-trione]	7.00 to 8.00
7.00 to 8.00	NCC1CCc2cc(O)c(N3CC(=O)NS3(=O)=O)c(F)c2C1 (stereo not drawn) [Compound 389, 5-[7-(aminomethyl)-1-fluoro-3-hydroxy-5,6,7,8-tetrahydronaphthalen-2-yl]-1λ^6,2,5-thiadiazolidine-1,1,3-trione]	7.00 to 8.00
7.00 to 8.00	CC(C)CCNCC1CCc2cc(O)c(N3CC(=O)NS3(=O)=O)c(F)c2C1 (stereo not drawn) [Compound 390, 5-(1-fluoro-3-hydroxy-7-{[(3-methylbutyl)amino]methyl}-5,6,7,8-tetrahydronaphthalen-2-yl)-1λ^6,2,5-thiadiazolidine-1,1,3-trione]	7.00 to 8.00
7.00 to 8.00	CC(C)(C)OC(=O)NCC1CCc2cc(O)c(N3CC(=O)NS3(=O)=O)c(F)c2C1 (stereo not drawn) [Compound 391, tert-butyl {[8-fluoro-6-hydroxy-7-(1,1,4-trioxo-1λ^6,2,5-thiadiazolidin-2-yl)-1,2,3,4-tetrahydronaphthalen-2-yl]methyl}carbamate]	7.00 to 8.00
7.00 to 8.00	O=C1CN(c2c(O)cc3c(c2F)CC(CNCCCC2CC2)CC3)S(=O)(=O)N1 (stereo not drawn) [Compound 394, 5-(7-{[(3-cyclopropylpropyl)amino]methyl}-1-fluoro-3-hydroxy-5,6,7,8-tetrahydronaphthalen-2-yl)-1λ^6,2,5-thiadiazolidine-1,1,3-trione]	7.00 to 8.00
7.00 to 8.00	CCCCNCC1CCc2cc(O)c(N3CC(=O)NS3(=O)=O)c(F)c2C1 (stereo not drawn) [Compound 396, 5-{7-[(butylamino)methyl]-1-fluoro-3-hydroxy-5,6,7,8-tetrahydronaphthalen-2-yl}-1λ^6,2,5-thiadiazolidine-1,1,3-trione]	7.00 to 8.00
